The target in the series is HSD17B13. The note with it: ASO, HepaRG.

“And” between values parts separate entries of the source, which are not always exact repeats. Identical values can stand only once. After the bases stand the sugars from the 5' end (letter, count) and the backbone: PS all phosphorothioate, else s phosphorothioate and o phosphodiester by linkage. Methylation of C is not given here. e = 2'-O-(2-methoxyethyl) (MOE); k = constrained ethyl (cEt); d = 2'-deoxy (DNA); m = 2'-O-methyl

Turning to GAAGATCGGCTGGATA (sugars k3 d10 k3, PS), where the note is “1 µM”, the target mRNA inhibition worked out at 16%.
As for CCTCTAAGTTAGCCCC (sugars k3 d10 k3, PS), under “1 µM”, the target mRNA inhibition amounted to 97%.
TCTAAATTACTCCGTT (sugars k3 d10 k3, PS) returned a target mRNA inhibition (1 µM) of 15%.
AGCCTAAAATTGTCTA (sugars k3 d10 k3, PS) registered a target mRNA inhibition (1 µM) of 53%.
TTTAGTTGGTAGCTTG (sugars k3 d10 k3, PS) registered a target mRNA inhibition (1 µM) of 63%.
Turning to “AATAGAGTCGGTCACC (sugars k3 d9 k3 e1, PS)”, the target mRNA inhibition (1 µM) worked out at 58%.
As to “TAGTCTTCAGCAAAGT (sugars k3 d1 m1 d8 k3, PS)”, where the note is “1 µM”, the target mRNA inhibition is 41%.
“CACAAGTAAGGTAAAG (sugars k3 d9 k3 e1, PS)” displayed a target mRNA inhibition (1 µM) of 55%.
On to TCCCTGTGTAAATAAG (sugars k3 d10 k3, PS), for which, where the note is “1 µM”, the target mRNA inhibition turned out to be 35%.
Turning to TATTAATATGACTTGC (sugars k3 d10 k3, PS), the target mRNA inhibition (1 µM) was determined as 25%.
Still for that read-out and setting: the value for GGTCAGTAGAGAGCAT (sugars k3 d10 k3, PS) was 79%; that for ACCTGATTTAGAGAGC (sugars k3 d10 k3, PS) was 65%.
As for CCAAAGATGAGAGTCT (sugars k3 d10 k3, PS), under “1 µM”, the target mRNA inhibition worked out at 19%.
Where the note is “1 µM”, “TAAGAGGCATGAAAGG (sugars kkdddddddddkekek, PS)” displayed a target mRNA inhibition of 54%.
TCCACACCGCGCTTAT (sugars k3 d10 k3, PS) had a target mRNA inhibition (1 µM) of 32%.
Regarding “CACAUATGTGAAGAGC (sugars k3 d1 m1 d8 k3, PS)”, the target mRNA inhibition (1 µM) is 65%.
For the sequence TGCCCCGAATTATTTC (sugars k3 d10 k3, PS), the target mRNA inhibition (1 µM) was determined as 3%.
Where the note is “1 µM”, “CCAACCAAACTTCCAG (sugars k3 d9 k3 e1, PS)” showed a target mRNA inhibition of 47%.
In the case of ATGCTAGTAATTGCAT (sugars k3 d10 k3, PS), the target mRNA inhibition (1 µM) came out at 16%.
Same read-out and setting: then “ATAGCAAGCCAACAGA (sugars kkdddddddddkekek, PS)”, with 23%; and CCGTTTTGGGCTAATG (sugars k3 d10 k3, PS), with 58%; and CAGCATCAAGACATTC (sugars k3 d10 k3, PS), with 72% and 70%.
As for AGATATTGATATACGA (sugars k3 d10 k3, PS), where the note is “1 µM”, the target mRNA inhibition stood at 20%.
For “CTCTTAGCTGTGCACT (sugars k3 d9 k3 e1, PS)”, the target mRNA inhibition reads like this: (0.02 µM) 0%; (0.078 µM) 20%; (0.313 µM) 0%; (1 µM) 66%; (1.25 µM) 39%; (5 µM) 79%.
As to “GGTCACCTTTCATAAT (sugars k3 d1 m1 d8 k3, PS)”, the target mRNA inhibition (1 µM) came out at 48%.
On the same count and under the same terms, the value for AGTAATTCTAAACTAG (sugars k3 d10 k3, PS) was 31%.
On to “CATCTTAAGATACCCA (sugars k3 d9 k3 e1, PS)”, for which the target mRNA inhibition is, setting by setting: (0.02 µM) 0%; (0.078 µM) 23%; (0.313 µM) 38%; (1 µM) 76%; (1.25 µM) 64%; (5 µM) 79%.
As for “TGCTGCTAGTGCCAAA (sugars k3 d9 k3 e1, PS)”, under “1 µM”, the target mRNA inhibition was 56%.
As to “GCATCTTAAGATACCC (sugars k3 d9 k3 e1, PS)”, the target mRNA inhibition is 28% (0.02 µM); 34% (0.078 µM); 58% (0.313 µM); 84% (1 µM); 81% (1.25 µM); 83% (5 µM).
Regarding ACAGTTGAGTAGTGTA (sugars k3 d10 k3, PS), the target mRNA inhibition (1 µM) came out at 72%.
On the same count and under the same terms, then AACTACATGACCTGGG (sugars k3 d10 k3, PS), with 27%.
For TTTGGTGAACCCAGTA (sugars k3 d10 k3, PS), the target mRNA inhibition (1 µM) was determined as 34%.
For TATTATGCACTCTATA (sugars k3 d10 k3, PS), the target mRNA inhibition (1 µM) was found to be 9%.
With “GCATCTTAAGATACCC (sugars k3 d1 m1 d8 k3, PS)”, the target mRNA inhibition (1 µM) is 65%.
Take TATGTGATTGAGTTCT (sugars k3 d10 k3, PS): the target mRNA inhibition (1 µM) is 28%.
CAAGGAAAAGCCTGAC (sugars k3 d10 k3, PS) yielded a target mRNA inhibition (1 µM) of 59%.
The same measure, in the same setting: then “TTGAGATAAAGCTGCC (sugars k3 d1 m1 d8 k3, PS)”, with 51%; and TTTCTCTCCATCATCG (sugars k3 d10 k3, PS), with 27%; and GCCCTTAAGTCATTTT (sugars k3 d10 k3, PS), with 25%.
Still for that read-out and setting: then TATAATTACAACCTGG (sugars k3 d10 k3, PS), with 46%.
With ATATTGTTTAGCTGAT (sugars k3 d10 k3, PS), the target mRNA inhibition (1 µM) was 14%.
In the case of GTATAGTATTCTTCAC (sugars k3 d10 k3, PS), the target mRNA inhibition turned out to be 15% (0.02 µM); 4% (0.078 µM); 29% (0.313 µM); 81% (1 µM); 61% (1.25 µM); 86% (5 µM).
On to ACATTAGCAAGCTAAG (sugars k3 d10 k3, PS), for which the target mRNA inhibition (1 µM) was 52%.
As to ACAGTTCCTTTTCCTG (sugars k3 d10 k3, PS), the target mRNA inhibition (1 µM) amounted to 58%.
As for CCACATACGCATGCGC (sugars k3 d10 k3, PS), the target mRNA inhibition by setting is: (0.02 µM) 3%; (0.078 µM) 1%; (0.313 µM) 43%; (1 µM) 68%; (1.25 µM) 63%; (5 µM) 88%.
For the sequence TTGGACATGAAGATTA (sugars k3 d10 k3, PS), the target mRNA inhibition (1 µM) came to 18%.
On to “GTTGATATTCTGTGGC (sugars k3 d9 k3 e1, PS)”, for which the target mRNA inhibition is 23% (0.02 µM); 17% (0.078 µM); 49% (0.313 µM); 73% and 50% (1 µM); 61% (1.25 µM); 55% (5 µM).
CTCAACAGAGAATTGT (sugars k3 d10 k3, PS) returned a target mRNA inhibition (1 µM) of 29%.
“AGAGUCGGTCACCTTT (sugars k3 d1 m1 d8 k3, PS)” came in with a target mRNA inhibition (1 µM) of 55%.
Consider “TTGATATTCTGTGGCA (sugars k3 d9 k3 e1, PS)”, for which the target mRNA inhibition by setting is: (0.02 µM) 0%; (0.078 µM) 0%; (0.313 µM) 25%; (1 µM) 76%; (1.25 µM) 51%; (5 µM) 55%.
ATAGGCTAAAATGGTC (sugars k3 d10 k3, PS) had a target mRNA inhibition (1 µM) of 61%.
In turn, “CCAGUACAGTTCCTTT (sugars k3 d1 m1 d8 k3, PS)” gave a target mRNA inhibition (1 µM) of 51%.
For GTCTAAAGTGCTGGTT (sugars k3 d10 k3, PS), for the setting “1 µM”, the target mRNA inhibition worked out at 39%.
Same read-out and setting: then “TCTTGACAATGGTTGA (sugars k3 d1 m1 d8 k3, PS)”, with 56%.
On to CATGATTAAGCAGAAT (sugars k3 d10 k3, PS), for which the target mRNA inhibition (1 µM) came out at 42%.
For the setting “1 µM”, ATCCAGTAGGTGTGTT (sugars k3 d10 k3, PS) yielded a target mRNA inhibition of 41%.
Consider GATAGTGAACATACAT (sugars k3 d10 k3, PS), for which the target mRNA inhibition (1 µM) was 54%.
On to “CCAGGTTGAGATAAAG (sugars k3 d9 k3 e1, PS)”, for which, for the setting “1 µM”, the target mRNA inhibition was found to be 51%.
For the sequence “GGCTACAGATTGGAAT (sugars k3 d9 k3 e1, PS)”, the target mRNA inhibition (1 µM) was 28%.
As to “GTAAUAGCCAGTACAG (sugars k3 d1 m1 d8 k3, PS)”, the target mRNA inhibition (1 µM) was determined as 62%.
For TAGGTAGCTAATGTAT (sugars k3 d10 k3, PS), the target mRNA inhibition (1 µM) was 34%.
Still for that read-out and setting: then AGGGTCCACTTTTGGT (sugars k3 d10 k3, PS), with 11%.
Still for that read-out and setting: then AGGCCATAATCTTGTG (sugars k3 d10 k3, PS), with 33%; and TGCCAAGCTTTGTGTC (sugars k3 d10 k3, PS), with 38%.
With “TGAAGTTAGTATAGTT (sugars k3 d1 m1 d8 k3, PS)”, the target mRNA inhibition (1 µM) turned out to be 62%.
With TGCATAAGAGCCAAAC (sugars k3 d10 k3, PS), the target mRNA inhibition (1 µM) came out at 56%.
Where the note is “1 µM”, CATAGAACTAGAACTC (sugars k3 d10 k3, PS) yielded a target mRNA inhibition of 19%.
Regarding “GTATGTTTATGTAAGC (sugars k3 d9 k3 e1, PS)”, the target mRNA inhibition (1 µM) turned out to be 71%.
ATTCTACACTAATATT (sugars k3 d10 k3, PS): where the note is “1 µM”, the target mRNA inhibition was 0%.
“AGAAUAGAGTTGCACC (sugars k3 d1 m1 d8 k3, PS)” had a target mRNA inhibition (1 µM) of 49%.
Still for that read-out and setting: the value for ATACATTAGCAAGCTA (sugars k3 d10 k3, PS) was 69%; that for ATAACTCTATTGATTG (sugars k3 d10 k3, PS) was 39%; that for AGACTTTGAGACTCTT (sugars k3 d10 k3, PS) was 57%.
On to AATACGACTTCCTTCT (sugars k3 d10 k3, PS), for which the target mRNA inhibition (1 µM) is 26%.
In turn, “GAGACATGAGGTTTTG (sugars kkdddddddddkekek, PS)” yielded a target mRNA inhibition (1 µM) of 49%.
The same measure, in the same setting: the value for “AAGATACCCAGGTTGC (sugars kkdddddddddkekek, PS)” was 59%; that for “TATCAGACTTCTTACG (sugars kkdddddddddkekek, PS)” was 32%.
The sequence ATGGAAACATGCTTGG (sugars k3 d10 k3, PS) yielded a target mRNA inhibition (1 µM) of 48%.
On to “TGGTAACGGTGATCAA (sugars kkdddddddddkekek, PS)”, for which the target mRNA inhibition (1 µM) was 26%.
The same measure, in the same setting: then “AATGCTACTTGAACAG (sugars k3 d1 m1 d8 k3, PS)”, with 34%; and ATTTAGAGAGCGATAG (sugars k3 d10 k3, PS), with 14%.

(Values after the OligoGym collection.)
